Columns and labels:
Format in all cases: cell-based
[1] = target: T1, F508del-CFTR (Homo sapiens, UniProt P13569, DEL508-508); test: HS-YFP assay on F508del-CFTR CFBE41o- cells, acute stimulation; parameters: expressed in transfected cells; details: acute stimulation in the presence of forskolin, Figure 4A
Method: The preliminary activity of these three hits was further evaluated in secondary screening assays. Although featuring the same common scaffold, in order to possibly discriminate the most interesting hit for further structural investigations, the compounds belonging to the family of tetrahydro-γ-carbolines were tested on more relevant cell models. First, the hits were tested on an immortalized bronchial epithelial cell line (CFBE41o-) stably expressing F508del-CFTR and HS-YFP. […]
(§1) Prior assay, cells were washed with phosphate-buffered saline (PBS) containing (in mM) 137 NaCl, 2.7 KCl, 8.1 Na2HPO4, 1.5 KH2PO4, 1 CaCl2, and 0.5 MgCl2. […] Cells were then transferred to microplate readers (FluoStar Optima; BMG Labtech, Offenburg, Germany) for CFTR activity determination. The plate readers were equipped with high-quality excitation (HQ500/20X: 500 ± 10 nm) and emission (HQ535/30M: 535 ± 15 nm) filters for YFP (Chroma Technology). The assay consisted of a continuous 14 s fluorescence reading, 2 s before and 12 s after injection of 165 μL of an iodide-containing solution (PBS with Cl^– replaced by I^–; final I^– concentration 100 mM). Data were normalized to the initial background-subtracted fluorescence. […]

[2] = target: T2, G551D-CFTR (Homo sapiens, UniProt P13569, G551D); test: HS-YFP-based assay on G551D-CFTR FRT cells
T2 construct: expressed in transfected cells
T2 sequence (P13569 whole entry G551D): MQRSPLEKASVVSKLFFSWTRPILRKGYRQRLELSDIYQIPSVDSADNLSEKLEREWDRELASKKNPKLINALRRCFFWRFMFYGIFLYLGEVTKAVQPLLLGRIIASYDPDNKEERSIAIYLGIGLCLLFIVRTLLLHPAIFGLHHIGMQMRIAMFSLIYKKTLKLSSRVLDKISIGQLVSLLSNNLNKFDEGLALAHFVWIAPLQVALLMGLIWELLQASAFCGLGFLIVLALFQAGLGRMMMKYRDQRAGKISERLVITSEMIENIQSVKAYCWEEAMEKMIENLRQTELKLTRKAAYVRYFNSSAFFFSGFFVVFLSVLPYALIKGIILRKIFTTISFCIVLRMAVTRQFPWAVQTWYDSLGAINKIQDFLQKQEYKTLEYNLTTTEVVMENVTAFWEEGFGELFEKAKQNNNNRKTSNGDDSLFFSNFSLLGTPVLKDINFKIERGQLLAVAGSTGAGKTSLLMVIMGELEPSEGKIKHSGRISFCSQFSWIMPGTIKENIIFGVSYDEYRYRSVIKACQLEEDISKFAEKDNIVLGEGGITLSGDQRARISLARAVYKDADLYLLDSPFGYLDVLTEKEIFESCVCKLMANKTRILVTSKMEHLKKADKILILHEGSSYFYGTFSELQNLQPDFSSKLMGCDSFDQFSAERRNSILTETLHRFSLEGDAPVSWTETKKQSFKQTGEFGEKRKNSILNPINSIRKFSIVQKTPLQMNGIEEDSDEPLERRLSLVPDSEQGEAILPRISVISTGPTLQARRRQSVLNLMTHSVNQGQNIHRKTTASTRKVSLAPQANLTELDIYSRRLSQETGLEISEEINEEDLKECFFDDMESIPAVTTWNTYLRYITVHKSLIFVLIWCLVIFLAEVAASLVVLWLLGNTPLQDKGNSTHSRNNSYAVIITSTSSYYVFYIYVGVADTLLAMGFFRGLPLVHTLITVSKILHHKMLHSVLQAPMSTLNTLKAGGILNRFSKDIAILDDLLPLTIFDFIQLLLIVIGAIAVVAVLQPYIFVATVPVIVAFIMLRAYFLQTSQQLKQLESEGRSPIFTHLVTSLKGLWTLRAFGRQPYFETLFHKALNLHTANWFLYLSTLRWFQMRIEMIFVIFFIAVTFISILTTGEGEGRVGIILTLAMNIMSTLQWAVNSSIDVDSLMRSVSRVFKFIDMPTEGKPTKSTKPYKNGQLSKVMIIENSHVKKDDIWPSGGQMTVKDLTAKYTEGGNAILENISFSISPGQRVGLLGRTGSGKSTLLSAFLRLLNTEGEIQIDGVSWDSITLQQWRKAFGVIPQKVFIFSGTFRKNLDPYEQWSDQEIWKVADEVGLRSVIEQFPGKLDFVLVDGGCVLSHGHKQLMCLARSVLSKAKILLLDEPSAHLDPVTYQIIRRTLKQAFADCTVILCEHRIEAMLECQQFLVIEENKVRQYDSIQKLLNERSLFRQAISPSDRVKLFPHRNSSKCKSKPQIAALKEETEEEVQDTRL
Method: The primary hits were confirmed by testing them at different concentrations, in order to extrapolate the dose–response relationship. First, we focused on the F508del mutant. The compounds were tested in the low micromolar range, in the presence of forskolin (10 μM), on F508del-CFTR FRT cells following rescue of the trafficking defect by low-temperature incubation, as done for the primary screening. The most interesting hits were subsequently tested for their ability to overcome the more severe gating defect of pure class III mutant using FRT cells stably expressing G551D-CFTR (Figure 3B).
A small set of selected potentiators with good efficacy and potency on F508del-CFTR FRT cells (Figure 6A) was also tested at three concentrations on G551D-CFTR FRT cells (Figure 6B).
FRT cells stably expressing mutant F508del-CFTR or G551D-CFTR and the halide-sensitive yellow fluorescent protein (HS-YFP) YFP-H148Q/I152L and CFBE41o-cells stably expressing F508del-CFTR and HS-YFP were generated as previously described.[21],[57] FRT cells were cultured using the Coon’s modification of Ham’s F12 medium, while CFBE41o-cells were cultured in the modified Eagle’s medium. Media were supplemented with 10% fetal calf serum, 2 mM L-glutamine, 100 U/mL of penicillin, and […] of streptomycin. […]
as §1

[3] = target: T1, F508del-CFTR; test: 24 h co-incubation with correctors, YFP-based functional assay on F508del-CFTR CFBE41o- cells; parameters: expressed in transfected cells; details: 39 5 μM with VX-809 1 μM or ARN23765 10 nM
Method: Recent studies have shown that most potentiators have an undesired activity on F508del-CFTR protein processing/trafficking.[39],[40] According to these studies, chronic incubation with potentiators results in decreased activity of VX-809 as a corrector. To test the effect of our potentiators, we incubated F508del-CFTR CFBE41o-cells for 24 h with tetrahydro-γ-carboline 39 (5 μM) together with VX-809 (1 μM) and ARN23765 (10 nM), the picomolar affinity corrector recently reported by our research team.[35] […]
as §1

T1 sequence (P13569 with tags, fused parts or gaps DEL508-508): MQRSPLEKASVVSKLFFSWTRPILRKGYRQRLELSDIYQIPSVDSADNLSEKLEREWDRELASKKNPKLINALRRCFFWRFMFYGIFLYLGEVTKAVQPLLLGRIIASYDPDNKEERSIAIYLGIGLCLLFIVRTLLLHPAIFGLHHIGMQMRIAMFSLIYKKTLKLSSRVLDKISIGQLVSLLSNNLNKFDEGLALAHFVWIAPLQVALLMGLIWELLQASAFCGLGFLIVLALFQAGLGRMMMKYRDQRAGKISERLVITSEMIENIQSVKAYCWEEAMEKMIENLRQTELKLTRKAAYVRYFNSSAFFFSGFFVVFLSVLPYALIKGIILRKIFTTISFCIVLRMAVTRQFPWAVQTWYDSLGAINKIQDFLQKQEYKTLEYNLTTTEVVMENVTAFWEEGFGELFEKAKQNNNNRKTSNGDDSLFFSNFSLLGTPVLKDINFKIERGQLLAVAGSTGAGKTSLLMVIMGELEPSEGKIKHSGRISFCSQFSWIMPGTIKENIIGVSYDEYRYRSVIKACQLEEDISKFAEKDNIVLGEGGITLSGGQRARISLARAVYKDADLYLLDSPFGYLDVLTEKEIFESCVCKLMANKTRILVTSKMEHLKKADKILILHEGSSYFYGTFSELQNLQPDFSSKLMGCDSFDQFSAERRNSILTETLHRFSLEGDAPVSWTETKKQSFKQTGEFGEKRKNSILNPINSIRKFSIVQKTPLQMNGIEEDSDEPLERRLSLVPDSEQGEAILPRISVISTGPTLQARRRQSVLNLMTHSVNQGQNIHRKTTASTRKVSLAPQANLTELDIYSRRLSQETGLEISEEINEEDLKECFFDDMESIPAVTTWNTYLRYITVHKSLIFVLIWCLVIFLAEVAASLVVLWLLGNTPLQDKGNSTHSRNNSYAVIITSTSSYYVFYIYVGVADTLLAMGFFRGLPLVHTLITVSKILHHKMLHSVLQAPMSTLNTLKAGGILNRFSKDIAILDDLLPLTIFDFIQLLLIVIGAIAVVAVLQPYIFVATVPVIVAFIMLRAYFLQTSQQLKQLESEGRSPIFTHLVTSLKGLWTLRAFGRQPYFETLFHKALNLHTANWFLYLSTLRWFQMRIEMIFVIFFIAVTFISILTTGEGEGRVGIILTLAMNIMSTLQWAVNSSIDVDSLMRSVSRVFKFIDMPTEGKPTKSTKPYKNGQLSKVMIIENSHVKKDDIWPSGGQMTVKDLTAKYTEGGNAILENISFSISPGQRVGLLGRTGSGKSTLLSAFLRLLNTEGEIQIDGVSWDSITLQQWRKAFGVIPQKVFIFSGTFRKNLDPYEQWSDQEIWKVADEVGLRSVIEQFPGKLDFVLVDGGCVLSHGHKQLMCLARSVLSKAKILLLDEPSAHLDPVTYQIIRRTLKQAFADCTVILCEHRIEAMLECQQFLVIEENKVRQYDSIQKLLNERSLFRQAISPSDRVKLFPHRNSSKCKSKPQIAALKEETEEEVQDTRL

SMILES | dose-dependent activation of mutant CFTR [1] | activity compared to VX-770 on G551D-CFTR FRT cells ([2]; at 0.56 μM) | activity compared to VX-770 on G551D-CFTR FRT cells ([2]; at the highest concentrations (20–3.3 μM)) | potency ranking on G551D-CFTR FRT cells ([2]; tested at three concentrations, Figure 6B) | effect on rescue efficacy of VX-809 or ARN23765 [3]
COc1ccc2[nH]c3c(c2c1)CN(C(=O)c1cc(C(F)(F)F)[nH]n1)CC3 [Compound 3, (8-Methoxy-1,3,4,5-tetrahydropyrido[4,3-b]indol-2-yl)-[5-(trifluoromethyl)-1H-pyrazol-3-yl]methanone] | the most effective | – | – | – | –
Cc1ccc(F)c2[nH]c3c(c12)CN(C(=O)c1cc(C(F)(F)F)[nH]n1)[C@H](C)C3 [Compound 39, (R)-(6-Fluoro-3,9-dimethyl-1,3,4,5-tetrahydro-2H-pyrido[4,3-b]indol-2-yl)-(5-(trifluoromethyl)-1H-pyrazol-3-yl)methanone] | – | decrease in activity | comparable pattern of activity | the most potent one | did not affect the rescue efficacy

From PMC8011931, “Identification, Structure–Activity Relationship, and Biological Characterization of 2,3,4,5-Tetrahydro-1H-pyrido[4,3-b]indoles as a Novel Class of CFTR Potentiators” (Journal of Medicinal Chemistry, 2020)
